We go through 11 compounds from patent US8309546B2, “Morpholinopurine derivatives” (Daiichi Sankyo Company, Limited, priority 2008, dated 2012).

In this experiment the test system is human endometrial cancer cell strain AN3CA tumor. Kind of experiment: Anti-tumor effect assay using mouse subcutaneous transplantation model. Format: in vivo, female nude mouse. To be noted: AN3-CA, oral, tumor weight vs negative control, read-out: Anti-tumor effect (tumor growth inhibition rate); for inhibition in vivo at 5 mg/kg/day / inhibition in vivo at 10 mg/kg/day / inhibition in vivo at 2.5 mg/kg/day: 8 or 5 consecutive days depending on compound. The method, then: A tumor section was prepared from a human endometrial cancer cell strain AN3CA tumor mass formed in a female nude mouse as a subcutaneously transplanted tumor and then a xenograft model was prepared by transplanting the tumor section into female nude mouse. Tumor-bearing mice having an estimated tumor volume (long diameter×short diameter×short diameter/2) of 80 to 200 mm^3 were divided, so that there should be no significant difference in the mean estimated tumor volume and body weight as compared with the negative control group to perform a test. The test compound was orally administered at a predetermined dose for 8 consecutive days. On the following day of the final administration day, tumor-bearing mice were anesthetized and exsanguinated to death and a tumor mass was isolated to measure tumor weight (the compounds of Examples 1, 3, 6, 8, 11, 12, and 14). Furthermore, as a similar test, the test compound was orally administered for 5 consecutive days, animals were sacrificed on the final administration day, and tumor weight was measured (the compounds of Examples 60, 63, 75, 77, 79, 89, 92, 107, 108, 109, 110, and 127).
In all the tests, anti-tumor effect was calculated by the following formula. {1−(tumor weight in compound treatment group/tumor weight in negative control group)}×100

For the compound `CC(=O)N1CCN(c2nc3c(N4CCOCC4)nc(-c4cnc(N)nc4)nc3n2CC(F)(F)F)C[C@@H]1C` [Example 63, 5-{8-[(3S)-4-Acetyl-3-methylpiperazin-1-yl]-6-morpholin-4-yl-9-(2,2,2-trifluoroethyl)-9H-purin-2-yl}pyrimidin-2-amine], the inhibition in vivo at 0.875 mg/kg/day (120 h, 0.875 mg/kg/day, 5 consecutive days) was found to be 52%. Further, where the note is “120 h, 3.5 mg/kg/day, 5 consecutive days”, the inhibition in vivo at 3.5 mg/kg/day was determined as 88%.
Consider `C[C@@H]1CN(c2nc3c(N4CCOCC4)nc(-c4cnc(N)nc4)nc3n2CC(F)(F)F)C[C@H](C)N1` [Example 14, 5-[8-(cis-3,5-Dimethylpiperazin-1-yl)-6-morpholin-4-yl-9-(2,2,2-trifluoroethyl)-9H-purin-2-yl]pyrimidin-2-amine], for which the inhibition in vivo at 5 mg/kg/day is 64% and the inhibition in vivo at 10 mg/kg/day was found to be 82%.
The corresponding values for `CS(=O)(=O)N1CCN(c2nc3c(N4CCOCC4)nc(-c4cnc(N)nc4)nc3n2CC2CC2)CC1` [Example 3, 5-{9-(Cyclopropylmethyl)-8-[4-(methylsulfonyl)piperazin-1-yl]-6-morpholin-4-yl-9H-purin-2-yl}pyrimidin-2-amine] are 75% and 86%.
Turning to `C[C@H](O)C(=O)N1CCN(c2nc3c(N4CCOCC4)nc(-c4cnc(N)nc4)nc3n2CC(F)(F)F)C[C@H]1C` [Example 110, (2S)-1-{(2R)-4-[2-(2-Aminopyrimidin-5-yl)-6-morpholin-4-yl-9-(2,2,2-trifluoroethyl)-9H-purin-8-yl]-2-methylpiperazin-1-yl}-1-oxopropan-2-ol], under “120 h, 1.875 mg/kg/day, 5 consecutive days”, the inhibition in vivo at 1.875 mg/kg/day amounted to 43%. Besides, under “120 h, 7.5 mg/kg/day, 5 consecutive days”, the inhibition in vivo at 7.5 mg/kg/day stood at 73%.
With `CC(C)Cn1c(N2CCN(C(=O)[C@@H](C)O)CC2)nc2c(N3CCOCC3)nc(-c3cnc(N)nc3)nc21` [Example 93], the inhibition in vivo at 2.5 mg/kg/day amounted to 42% and the inhibition in vivo at 5 mg/kg/day came to 54%.
As to `C[C@H](O)C(=O)N1CCN(c2nc3c(N4CCOCC4)nc(-c4cnc(N)nc4)nc3n2CC2CC2)C[C@H]1C` [Example 95, (2S)-1-{(2R)-4-[2-(2-Aminopyrimidin-5-yl)-9-(cyclopropylmethyl)-6-morpholin-4-yl-9H-purin-8-yl]-2-methylpiperazin-1-yl}-1-oxopropan-2-ol], the inhibition in vivo at 5 mg/kg/day was 44% and the inhibition in vivo at 10 mg/kg/day turned out to be 62%.
The corresponding values for `C[C@H](O)C(=O)N1CCN(c2nc3c(N4CCOCC4)nc(-c4cnc(N)nc4)nc3n2CC2CC2)C[C@@H]1C` [Example 92, (2S)-1-{(2S)-4-[2-(2-Aminopyrimidin-5-yl)-9-(cyclopropylmethyl)-6-morpholin-4-yl-9H-purin-8-yl]-2-methylpiperazin-1-yl}-1-oxopropan-2-ol] are 52% and 61%.
`CNc1ncc(-c2nc(N3CCOCC3)c3nc(N4CCN(C(C)=O)[C@H](C)C4)n(CC(F)(F)F)c3n2)cn1` [Example 108, 5-{8-[(3R)-4-Acetyl-3-methylpiperazin-1-yl]-6-morpholin-4-yl-9-(2,2,2-trifluoroethyl)-9H-purin-2-yl}-N-methylpyrimidin-2-amine]: the inhibition in vivo at 2.5 mg/kg/day came to 53% and the inhibition in vivo at 10 mg/kg/day worked out at 82%.
As for `CC(=O)N1CCN(c2nc3c(N4CCOCC4)nc(-c4cnc(N)nc4)nc3n2CC2CC2)CC1` [Example 10, 5-[8-(4-Acetylpiperazin-1-yl)-9-(cyclopropylmethyl)-6-morpholin-4-yl-9H-purin-2-yl]pyrimidin-2-amine], the inhibition in vivo at 10 mg/kg/day stood at 39%. Besides, where the note is “20 mg/kg/day, consecutive days”, the inhibition in vivo at 20 mg/kg/day was determined as 73%.
For the compound `C[C@H](O)C(=O)N1CCN(c2nc3c(N4CCOCC4)nc(-c4cnc(N)nc4)nc3n2CC2CC2)CC1` [Example 88, (2S)-1-{4-[2-(2-Aminopyrimidin-5-yl)-9-(cyclopropylmethyl)-6-morpholin-4-yl-9H-purin-8-yl]piperazin-1-yl}-1-oxopropan-2-ol], the inhibition in vivo at 5 mg/kg/day is 30% and the inhibition in vivo at 10 mg/kg/day is 54%.
For `CC(=O)N1CCN(c2nc3c(N4CCOCC4)nc(-c4cnc(N)nc4)nc3n2CC(C)C)CC1` [Example 2, 5-[8-(4-Acetylpiperazin-1-yl)-9-isobutyl-6-morpholin-4-yl-9H-purin-2-yl]pyrimidin-2-amine] the same measures were 44% and 70%.
